From ChEMBL document CHEMBL5528052, “Single Deletion Unmasks Hidden Anti-Gram-Negative Bacterial Activity of an Insect Defensin-Derived Peptide” (J Med Chem, 2024)
The source made the active and inactive calls.

Tests used:
Assay type in all cases: functional, organism-based
[1] = system: Bacillus subtilis; assay: Antimicrobial activity against Bacillus subtilis CGMCC 1.2428 at 1 nmol relative to control
[2] = system: Curtobacterium luteum; assay: Antimicrobial activity against Curtobacterium luteum at 1 nmol relative to control
[3] = system: Lysinibacillus fusiformis; assay: Antimicrobial activity against Lysinibacillus fusiformis at 1 nmol relative to control
[4] = system: Staphylococcus; assay: Antimicrobial activity against methicillin-resistant coagulase negative Staphylococcus P1369 at 1 nmol relative to control
[5] = system: Staphylococcus aureus; assay: Antimicrobial activity against methicillin-resistant Staphylococcus aureus P1374 at 1 nmol relative to control
[6] = system: Staphylococcus aureus; assay: Antimicrobial activity against penicillin-resistant Staphylococcus aureus P1383 at 1 nmol relative to control
[7] = system: Staphylococcus aureus; assay: Antimicrobial activity against methicillin-resistant Staphylococcus aureus P1386 at 1 nmol relative to control
[8] = system: Staphylococcus epidermidis; assay: Antimicrobial activity against penicillin-resistant Staphylococcus epidermidis P1389 at 1 nmol relative to control
[9] = system: Staphylococcus aureus; assay: Antimicrobial activity against Staphylococcus aureus J685 at 1 nmol relative to control
[10] = system: Staphylococcus warneri; assay: Antimicrobial activity against Staphylococcus warneri ATCC 1.2824 at 1 nmol relative to control
[11] = system: Streptococcus mutans; assay: Antimicrobial activity against Streptococcus mutans ATCC 1.2499 at 1 nmol relative to control
[12] = system: Streptococcus salivarius; assay: Antimicrobial activity against Streptococcus salivarius ATCC 1.2498 at 1 nmol relative to control
[13] = system: Streptococcus sanguinis; assay: Antimicrobial activity against Streptococcus sanguinis ATCC 1.2497 at 1 nmol relative to control
[14] = system: Alcaligenes faecalis; assay: Antimicrobial activity against Alcaligenes faecalis CGMCC 1.1837 at 1 nmol relative to control
[15] = system: Escherichia coli; assay: Antimicrobial activity against Escherichia coli J16c at 1 nmol relative to control
[16] = system: Escherichia coli; assay: Antimicrobial activity against Escherichia coli J23a at 1 nmol relative to control
[17] = system: Escherichia coli; assay: Antimicrobial activity against Escherichia coli J14b at 1 nmol relative to control
[18] = system: Escherichia coli; assay: Antimicrobial activity against Escherichia coli G2b at 1 nmol relative to control
[19] = system: Escherichia coli; assay: Antimicrobial activity against Escherichia coli J45b at 1 nmol relative to control
[20] = system: Escherichia coli; assay: Antimicrobial activity against Escherichia coli DH5alpha at 1 nmol relative to control
[21] = system: Pseudomonas aeruginosa; assay: Antimicrobial activity against Pseudomonas aeruginosa O1 at 1 nmol relative to control
[22] = system: Pseudomonas aeruginosa; assay: Antimicrobial activity against Pseudomonas aeruginosa at 1 nmol relative to control
[23] = system: Pseudomonas aeruginosa; assay: Antimicrobial activity against Pseudomonas aeruginosa FRD1 at 1 nmol relative to control
[24] = system: Pseudomonas aeruginosa; assay: Antimicrobial activity against Pseudomonas aeruginosa 374 at 1 nmol relative to control
[25] = system: Pseudomonas aeruginosa; assay: Antimicrobial activity against Pseudomonas aeruginosa 11082603 at 1 nmol relative to control
[26] = system: Pseudomonas aeruginosa; assay: Antimicrobial activity against Pseudomonas aeruginosa 11082616 at 1 nmol relative to control
[27] = system: Pseudomonas aeruginosa; assay: Antimicrobial activity against Pseudomonas aeruginosa 11092304 at 1 nmol relative to control
[28] = system: Pseudomonas aeruginosa; assay: Antimicrobial activity against Pseudomonas aeruginosa 11092618 at 1 nmol relative to control
[29] = system: Pseudomonas aeruginosa; assay: Antimicrobial activity against Pseudomonas aeruginosa DH at 1 nmol relative to control
[30] = system: Pseudomonas aeruginosa; assay: Antimicrobial activity against Pseudomonas aeruginosa QT1 at 1 nmol relative to control
[31] = system: Ralstonia solanacearum; assay: Antimicrobial activity against Ralstonia solanacearum at 1 nmol relative to control
[32] = system: Salmonella enterica; assay: Antimicrobial activity against Salmonella enterica ATCC 14028 at 1 nmol relative to control
[33] = system: Stenotrophomonas maltophilia; assay: Antimicrobial activity against Stenotrophomonas maltophilia CGMCC 1.1788 at 1 nmol relative to control
[34] = system: Geotrichum candidum; assay: Antifungal activity against Geotrichum candidum CCTCC AY 93038 at 1 nmol relative to control
[35] = system: Komagataella pastoris; assay: Antifungal activity against Pichia pastoris X33 at 1 nmol relative to control
[36] = system: Aspergillus nidulans; assay: Antifungal activity against Aspergillus nidulans A28 at 1 nmol relative to control
[37] = system: Aspergillus fumigatus; assay: Antifungal activity against Aspergillus fumigatus YJ-407 at 1 nmol relative to control
[38] = system: Aspergillus flavus; assay: Antifungal activity against Aspergillus flavus at 1 nmol relative to control
[39] = system: Aspergillus niger; assay: Antifungal activity against Aspergillus niger at 1 nmol relative to control
[40] = system: Beauveria bassiana; assay: Antifungal activity against Beauveria bassiana 252 at 1 nmol relative to control
[41] = system: Metarhizium robertsii; assay: Antifungal activity against Metarhizium robertsii at 1 nmol relative to control
[42] = system: Priestia megaterium; assay: Antimicrobial activity against Bacillus megaterium CGMCC 1.0459 at 1 nmol
[43] = system: Micrococcus luteus; assay: Antimicrobial activity against Micrococcus luteus CGMCC 1.0290 at 1 nmol relative to control

Measured: Activity

H-ATSYSNNKISVSRR-NH2
inactive: [1] | [2] | [3] | [4] | [5] | [6] | [7] | [8] | [9] | [10] | [11] | [12] | [13] | [14] | [15] | [16] | [17] | [18] | [19] | [20] | [21] | [22] | [23] | [24] | [25] | [26] | [27] | [28] | [29] | [30] | [31] | [32] | [33] | [34] | [35] | [36] | [37] | [38] | [39] | [40] | [41] | [43]
active: [42]
